Patent US20130035344A1, “PHARMACEUTICAL COMPOSITION FOR ORAL ADMINISTRATION” (KOWA Co., Ltd., priority 2009, published 2013)

Experiments:
Assay type in all cases: physicochemical
[1] = Measurement of pH value of sample or tablet in purified water
Procedure: 103.65 mg of each of the samples 1 to 6 (53.65 mg for sample 2 only) was introduced into a beaker, and 50 mL of purified water was added thereto. While the mixture was stirred with a magnetic stirrer, the pH of the solution was measured with a glass electrode type hydrogen ion concentration meter (manufactured by Toa Electronics, Inc.; HM-50V). 50 mL of purified water was further added thereto, and then the measurement of pH was carried out in the same manner.
The pH values of the samples 7 to 15 were measured in the same manner as that used in Test Example 2. Meanwhile 153.65 mg of sample 7, 98.65 mg of sample 8, 93.65 mg of sample 9, 88.65 mg of sample 10, 78.65 mg of sample 11, 68.65 mg of sample 12, 63.65 mg of sample 13, 58.65 mg of sample 14, and 55.65 mg of sample 15 were used.
The pH values of the tablets of Examples 8 to 10 and Comparative Examples 9 and 10 were measured by the same method as that used in Test Example 2. Meanwhile, one tablet was used for each measurement.
The pH values of the tablets of Example 11 and Comparative Example 11 were measured in the same manner as that used in Test Example 2. Meanwhile, one tablet was used for each measurement.

[2] = Dissolution test, JP second method (paddle method), second fluid for dissolution test
Procedure: The dissolubility of the samples 1 to 6 was examined according to the second method (paddle method) of the dissolution test method according to the general test methods of the Japanese Pharmacopoeia.
103.65 mg of each of the samples 1 to 6 (53.65 mg for sample 2 only) was introduced into 900 mL of the second fluid for dissolution test according to the Japanese Pharmacopoeia, and the test was carried out under the conditions of a temperature of 37±0.5° C. and a speed of paddle rotation of 50 rpm. Thus, the concentrations of the compound a after 5, 10, 15, 30, 45 and 60 minutes were measured. The sample solution collected at each time point was filtered through a membrane filter made of PTFE (DISMIC-25HP manufactured by Toyo Roshi Kaisha, Ltd.) having a pore size of 0.45 μm, and was analyzed by a high performance liquid chromatographic method using a reversed phase column (manufactured by Nomura Chemical Co., Ltd.; Develosil ODS-HG-5). Thus, the dissolution rates were calculated.
The dissolubility of the samples 7 to 15 was examined by carrying out the test in the same manner as that described in Test Example 1, except that 153.65 mg of sample 7, 98.65 mg of sample 8, 93.65 mg of sample 9, 88.65 mg of sample 10, 78.65 mg of sample 11, 68.65 mg of sample 12, 63.65 mg of sample 13, 58.65 mg of sample 14, and 55.65 mg of sample 15 were respectively introduced into 900 mL of the second fluid for dissolution test according to the Japanese Pharmacopoeia.
The dissolubility of the tablets of Examples 8 to 10 and Comparative Examples 9 and 10 was examined by carrying out the test by the same method as that described in Test Example 1, except that one tablet each of the Examples and Comparative Examples were introduced into 900 mL of the second fluid for dissolution test according to the Japanese Pharmacopoeia.
The dissolubility of the tablets of Example 11 and Comparative Example 11 was examined by carrying out the test in the same manner as that described in Test Example 1, except that each of tablets of Example 11 and Comparative Example 11 was introduced into 900 mL of the second fluid for dissolution test according to the Japanese Pharmacopoeia.

[3] = Solubility of compound a in water
Text: However, compound a has low solubility in weakly acidic environments to alkaline environments (for example, the solubility in water is 0.05% (W/V)). Therefore, in the case of patients of achlorhydria, which is considered to develop more frequently in elderly people, there has been a concern that the dissolubility of the compound a from the pharmaceutical composition in the stomach may be insufficient, and there may be variations in the efficacy of the drug.

CSc1cc(C)nc(SC)c1NC(=O)CN1CCN(CCSc2nc3ccccc3[nH]2)CC1 [Comparative Example 1, 2-[4-[2-(Benzimidazol-2-ylthio)ethyl]piperazin-1-yl]-N-[2,4-bis(methylthio)-6-methyl-3-pyridyl]acetamide]
pH (100 mL) ([1]; after a further 50 mL purified water (100 mL)): 5.07
pH (50 mL) ([1]; sample or one tablet in 50 mL purified water, stirred): 5.02
dissolution rate of compound a, Time (min) 0 ([2]; 0 min, 900 mL JP second fluid, 37±0.5° C., paddle 50 rpm): 0%
dissolution rate of compound a, Time (min) 5 ([2]; 5 min, 900 mL JP second fluid, 37±0.5° C., paddle 50 rpm): 0%
dissolution rate of compound a, Time (min) 10 ([2]; 10 min, 900 mL JP second fluid, 37±0.5° C., paddle 50 rpm): 5.7%
dissolution rate of compound a, Time (min) 15 ([2]; 15 min, 900 mL JP second fluid, 37±0.5° C., paddle 50 rpm): 3.1%
dissolution rate of compound a, Time (min) 30 ([2]; 30 min, 900 mL JP second fluid, 37±0.5° C., paddle 50 rpm): 5.2%
dissolution rate of compound a, Time (min) 45 ([2]; 45 min, 900 mL JP second fluid, 37±0.5° C., paddle 50 rpm): 7.1%
dissolution rate of compound a, Time (min) 60 ([2]; 60 min, 900 mL JP second fluid, 37±0.5° C., paddle 50 rpm): 10.2%

CSc1cc(C)nc(SC)c1NC(=O)CN1CCN(CCSc2nc3ccccc3[nH]2)CC1 [compound a, 2-[4-[2-(Benzimidazol-2-ylthio)ethyl]piperazin-1-yl]-N-[2,4-bis(methylthio)-6-methyl-3-pyridyl]acetamide]
solubility in water [3]: 0.05 % (W/V)
dissolubility of compound a (in words) ([2]; JP second fluid, paddle method): hardly dissolved
